# Assay results from US9260448B2, “Thienopyrimidinone derivatives as mGluR1 antagonists” (KOREA INSTITUTE OF SCIENCE AND TECHNOLOGY, priority 2013, dated 2016).
# Molecular target: mGluR1 (Homo sapiens, UniProt Q13255)
# Assay: mGluR1 activity screening using FDSS6000 (intracellular calcium, L-Glutamate stimulation)
# Assay type: cell-based
# Settings: Chem3 Cell Line (HTS145C:Millipore) stably expressing mGluR1, L-Glutamate 30 μM, Ca2+ fluorescent dye, read-out: IC50 (nM) against mGluR1
# Procedure: mGluR1 Activity Screening Method Using FDSS6000
# Cells of Chem3 Cell Line (HTS145C:Millipore) in which mGluR1 was stably expressed were adjusted to a density of 2×10^6/ml. 50 μl of the cells were plated in each well of a 96-well plate, and stabilized at 5% CO2 and 37° C. for 1 hr. The cells were allowed to react with an HBSS buffer containing a Ca^2+ fluorescent dye (FLIPR Calcium 5 assay kit: Molecular Devices) under the conditions of 5% CO2 and 37° C. for 30 min. As a result of the reaction, the cells were labeled with the fluorescent dye. Separately from the 96-well plate containing the fluorescently labeled cells, another 96-well plate was prepared that contained L-Glutamate (final concentration=30 μM) activating mGluR1 and a blocking drug to be screened. Most cell-based HTS systems have liquid application systems necessary for drug injection but no liquid inhalation systems. For this reason, 25 μl of each of the blocking drug and L-Glutamate was prepared at a 6-fold higher concentration in an HBSS buffer and diluted 6-fold in the final volume […] of the cell plate before measurement. Specifically, after drug pretreatment for 75 sec following recording the reference value at 20 sec, a change in intracellular calcium concentration caused by L-glutamate administration was measured using FDSS6000. The inhibitory effect of the test substance was expressed as a percent (%) relative to the area of the 480 nm/520 nm ratio in a control group untreated with the test substance. 10 μM PCTC20001 was always used as the control drug.
# For detailed imaging of calcium, the cells were selectively exposed to an excitation wavelength (480 nm) from four xenon light sources mounted in FDSS6000 through a computer-controlled filter wheel. Data were recorded at 1.23-sec intervals. Emitter fluorescence light entering through a 520 nm long-pass filter was allowed to pass through a cooled CCD camera mounted in the system. An average 480 nm/520 nm ratio was obtained in each well of the 96-well plate using a digital fluorescence analyzer. All imaging data were collected and analyzed with the help of a dedicated program for FDSS6000 (Hamamatsu Photonics).
# Measurement of IC50 Values Against mGluR1
# The IC50 values (nM) of the novel compounds of Formula 1 according to the present invention against mGluR1 are shown in Table 1.
# Chain of mGluR1 (Q13255 19-1194): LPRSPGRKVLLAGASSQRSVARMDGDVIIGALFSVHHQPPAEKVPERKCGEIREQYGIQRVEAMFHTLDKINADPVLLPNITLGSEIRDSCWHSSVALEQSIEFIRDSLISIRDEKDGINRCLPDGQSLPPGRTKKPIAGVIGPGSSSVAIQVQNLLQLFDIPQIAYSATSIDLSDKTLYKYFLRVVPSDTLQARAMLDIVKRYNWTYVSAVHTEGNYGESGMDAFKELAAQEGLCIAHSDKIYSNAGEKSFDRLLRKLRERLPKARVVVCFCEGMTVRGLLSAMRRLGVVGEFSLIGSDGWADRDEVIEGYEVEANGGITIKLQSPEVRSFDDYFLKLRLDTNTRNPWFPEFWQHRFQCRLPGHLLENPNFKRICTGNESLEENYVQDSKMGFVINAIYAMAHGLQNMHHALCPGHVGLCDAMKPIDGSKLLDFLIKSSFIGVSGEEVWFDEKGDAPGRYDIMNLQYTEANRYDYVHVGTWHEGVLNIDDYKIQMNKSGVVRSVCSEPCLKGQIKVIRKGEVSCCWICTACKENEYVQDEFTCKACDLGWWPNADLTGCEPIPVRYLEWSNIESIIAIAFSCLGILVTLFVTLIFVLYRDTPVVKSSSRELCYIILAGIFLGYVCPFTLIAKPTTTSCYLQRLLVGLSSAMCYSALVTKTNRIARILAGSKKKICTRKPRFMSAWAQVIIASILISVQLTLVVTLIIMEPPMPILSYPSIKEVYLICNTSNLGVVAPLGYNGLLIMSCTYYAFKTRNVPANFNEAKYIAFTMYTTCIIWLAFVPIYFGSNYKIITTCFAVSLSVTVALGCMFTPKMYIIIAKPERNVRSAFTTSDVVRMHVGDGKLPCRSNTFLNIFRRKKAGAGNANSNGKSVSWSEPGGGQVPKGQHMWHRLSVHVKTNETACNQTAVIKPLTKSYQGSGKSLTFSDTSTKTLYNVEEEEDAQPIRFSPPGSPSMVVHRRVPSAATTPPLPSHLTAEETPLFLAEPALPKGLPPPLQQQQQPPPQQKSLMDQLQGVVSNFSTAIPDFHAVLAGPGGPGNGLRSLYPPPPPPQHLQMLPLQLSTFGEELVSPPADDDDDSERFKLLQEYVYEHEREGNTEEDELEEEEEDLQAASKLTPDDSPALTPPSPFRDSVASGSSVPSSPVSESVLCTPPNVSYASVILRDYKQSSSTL
row,IC50 [nM],SMILES
1,407,"O=c1c2scc(-c3ccccc3)c2ncn1-c1ccccc1F [Compound 2, 3-(2-Fluorophenyl)-7-phenylthieno[3,2-d]pyrimidin-4(3H)-one]"
2,58,"O=c1c2scc(-c3ccccc3)c2ncn1-c1cccc(Cl)c1 [Compound 6, 3-(3-Chlorophenyl)-7-phenylthieno[3,2-d]pyrimidin-4(3H)-one]"
3,66,"O=c1c2scc(-c3ccccc3)c2ncn1-c1ccc(Cl)cc1 [Compound 7, 3-(4-Chlorophenyl)-7-phenylthieno[3,2-d]pyrimidin-4(3H)-one]"
4,112,"Cc1ccc(-n2cnc3c(-c4ccccc4)csc3c2=O)cc1 [Compound 18, 7-Phenyl-3-p-tolylthieno[3,2-d]pyrimidin-4(3H)-one]"
5,74,"C=Cc1cccc(-n2cnc3c(-c4ccccc4)csc3c2=O)c1 [Compound 29, 7-Phenyl-3-(3-vinylphenyl)thieno[3,2-d]-pyrimidin-4(3H)-one]"
6,30,"O=c1c2scc(-c3ccccc3F)c2ncn1-c1ccc(Cl)cc1 [Compound 32, 3-(4-Chlorophenyl)-7-(2-fluorophenyl)thieno[3,2-d]pyrimidin-4(3H)-one]"
7,80,"Cc1ccc(-c2csc3c(=O)n(-c4ccc(Cl)cc4)cnc23)cc1 [Compound 58, 3-(4-Chlorophenyl)-7-(p-tolyl)thieno[3,2-d]pyrimidin-4(3H)-one]"
8,661,"COc1ccc(-n2cnc3c(-c4ccc(C)cc4)csc3c2=O)cc1 [Compound 59, 3-(4-Methoxyphenyl)-7-(p-tolyl)thieno[3,2-d]pyrimidin-4(3H)-one]"
9,447,"O=c1c2scc(-c3ccc4c(c3)OCO4)c2ncn1-c1ccc(Cl)cc1 [Compound 68, 7-(Benzo[d][1,3]dioxol-5-yl)-3-(4-chlorophenyl)thieno[3,2-d]pyrimidin-4(3H)-one]"
10,1990,"COc1ccc(-n2cnc3c(-c4ccc5c(c4)OCO5)csc3c2=O)cc1 [Compound 69, 7-(Benzo[d][1,3]dioxol-5-yl)-3-(4-methoxyphenyl)thieno[3,2-d]pyrimidin-4(3H)-one]"
11,564,"COc1ccc(-n2c(C)nc3c(-c4ccccc4)csc3c2=O)cc1 [Compound 74, 3-(4-Methoxyphenyl)-2-methyl-7-phenylthieno[3,2-d]pyrimidin-4(3H)-one]"
